Assay results from patent publication US20160000777A1, “METHODS OF USING HISTAMINE RECEPTOR AGONISTS AND ANTAGONISTS” (UNIVERSITY OF ROCHESTER, priority 2013, published 2016).

Assays:
pro-Filaggrin (pro-FLG) = details: FIG. 6
Description: Human keratinocytes were isolated from neonatal foreskin as previously described (Poumay et al., “Basal Detachment of the Epidermis Using Dispase: Tissue Spatial Organization and Fate of Integrin alpha 6 beta 4 and Hemidesmosomes,” J Invest Dermatol 102:111-7 (1994), which is hereby incorporated by reference in its entirety). PHK were cultured in Keratinocyte-SFM (Invitrogen/Gibco, Grand Island, N.Y.) with 5 ng/ml human recombinant Epidermal Growth Factor 1-53 (EGF 1-53), 50 μg/ml Bovine Pituitary Extract (BEP), 1% Pen/Strep, and 0.2% Amphotericin B (Invitrogen/Gibco). To induce terminal differentiation PHK were grown in DMEM (Invitrogen/Gibco) with 1% Pen/Strep and 0.2% Amphotericin B (Invitrogen/Gibco). Where it is indicated, 10% heat-inactivated bovine serum (Invitrogen) was added to the differentiation media. […] The protein concentration of all samples was determined by BCA (Pierce). […] TJ integrity was assessed by trans-epithelial electrical resistance (TEER) and paracellular fluorescein flux (permeability). […] Keratinocyte differentiation was assessed by examining filaggrin, loricrin and keratin 10 expression by Western blot. Expression of HRs were evaluated by qPCR in skin biopsies taken from lesional and nonlesional sites in AD subjects (n=6-8) and non-atopics (n=10).

[1] = system: primary human keratinocytes (PHK); test: Transepithelial electric resistance (TEER) in cultured primary human keratinocytes; assay type: cell-based
Description: (§1) PHK were cultured in Keratinocyte-SFM (Invitrogen/Gibco, Grand Island, N.Y.) with 5 ng/ml human recombinant Epidermal Growth Factor 1-53 (EGF 1-53), 50 μg/ml Bovine Pituitary Extract (BEP), 1% Pen/Strep, and 0.2% Amphotericin B (Invitrogen/Gibco). To induce terminal differentiation PHK were grown in DMEM (Invitrogen/Gibco) with 1% Pen/Strep and 0.2% Amphotericin B (Invitrogen/Gibco). Where it is indicated, 10% heat-inactivated bovine serum (Invitrogen) was added to the differentiation media. […] Briefly, TEER was measured using an EVOMX voltohmmeter (World Precision Instruments, Sarasota, Fla.). To evaluate the paracellular flux of PHK, 0.02% Fluorescein (FITC) Sodium (Fluka, St. Louis, Mo.) in PBS (Invitrogen/Gibco) was added to the upper chamber. Samples were collected from the lower chamber after 30 minutes incubation for PHK culture or 10 and 20 minutes for skin explant. For each experiment paracellular flux was normalized to an empty filter. […] TJ integrity was assessed by trans-epithelial electrical resistance (TEER) and paracellular fluorescein flux (permeability).

[2] = system: primary human keratinocytes (PHK); test: Paracellular fluorescein flux (permeability) in cultured primary human keratinocytes; assay type: cell-based; details: histamine 100 μM, P<0.001, n=9, 96 hrs, FIG. 2B
Description: as §1

human skin explant = details: ex-vivo epidermal explants, histamine 100 μM, 24 hr, P<0.05, n=3
Description: Briefly, TEER was measured using an EVOMX voltohmmeter (World Precision Instruments, Sarasota, Fla.). To evaluate the paracellular flux of PHK, 0.02% Fluorescein (FITC) Sodium (Fluka, St. Louis, Mo.) in PBS (Invitrogen/Gibco) was added to the upper chamber. Samples were collected from the lower chamber after 30 minutes incubation for PHK culture or 10 and 20 minutes for skin explant. For each experiment paracellular flux was normalized to an empty filter.
Skin samples were mounted on filter supports (Whatman Nuclepore Track-Etch Membrane; GE Healthcare Biosciences, Pittsburgh, Pa.) with the epidermal side oriented upward, and sandwiched between two sterile custom made Plexiglas discs with an opening of 3 mm and placed in modified Snapwell™ chambers (Corning, Corning, N.Y., USA). Samples were submerged in DMEM media and kept at 37° C., 5% CO2 for 30 min. Fresh media with histamine (10 or 100 μM) or media alone were then added to both sides of the transwell. TEER and Paracellular flux of fluorescein of skin explant were measured at 24 hr.

ZO-1 = details: nasal and retinal epithelial cells, cited from earlier work
airway epithelial cells = details: cited from earlier work
human keratinocytes = details: cited from earlier work

With `O=C(O)COCCN1CCN(C(c2ccccc2)c2ccc(Cl)cc2)CC1` (centres unmarked) [Cetirizine] the “Prevention of histamine-mediated reduction of pro-FLG expression” value (pro-Filaggrin (pro-FLG); PHK co-treated with 100 μM histamine and 10 μM Cetirizine) was “prevented”.
In the case of `NCCc1c[nH]cn1` [histamine], the TEER peak ([1]; PHK differentiated in DMEM serum free media, histamine 100 μM, 96 hours post-stimulation, n=4, FIG. 2C) is reported as “significantly reduced TEER peak”, the “TEER, Mean Area under the curve (AUC)” value ([1]; PHK, histamine 10 and 100 μM, P<0.001, n=10, AUC of 0-120 h time points, FIG. 2A) is reported as “dose dependent reduction of TEER” and the “Permeability to Fluorescein, Mean Fold of control (FOC)” value [2] is reported as “enhancement of permeability”. For the same compound, the “Fluorescein permeability flux, Fold of control (FOC)” value (human skin explant; 20 minutes time point, FIG. 3B) was 1.3 fold, the “TEER, Fold of control (FOC)” value (human skin explant; FIG. 3A) was 0.7 fold and the pro-FLG expression (pro-Filaggrin (pro-FLG); PHK at day 5 post differentiation, 100 μM histamine, Western blot, n=4) was “significantly reduced”. For the same compound, the “Expression of ZO-1” value (ZO-1) was “reduce the expression”, the TJ paracellular permeability (airway epithelial cells) was “enhance TJ paracellular permeability” and the “Expression of stratum corneum and granulosum barrier proteins (e.g. filaggrin, Loricrin, claudin1, occludin)” value (human keratinocytes) was “reduced the expression”.
In the case of `COc1ccc(CN(CCN(C)C)c2ccccn2)cc1` [mepyriamine], the “Abrogation of histamine effect on ZO-1 expression” value (ZO-1; pretreatment with antagonist) is listed as “at least partially abrogated”.
